Experimental data published in PMC8400955 (Pharmaceuticals, 2021).
“And” between values parts separate entries of the source, which are not always exact repeats. Equal values may be shown once.

Tests used:
[1] = Stability in incubation medium only; type: in vitro ADME; conditions: 1 μM
Experimental: (§1) Hepatocytes of humans (#X008001), dogs (#M00205), rats (#M00005), and mice (#M005052) were purchased from BioIVT, NY, USA. Monkey hepatocytes were procured from RILD, Shanghai, China. The metabolic stability of ZB716 in human, monkey, dog, rat and mouse hepatocytes was investigated by incubating ZB716 with human, monkey, dog, rat, and mouse hepatocytes (0.5 × 10^6 cells/mL), or with incubation medium only.
(§2) parent disappearance vs. incubation time curve.
(§3) Scaled-up Clint = kV/N × Scaling Factor
(§4) metabolite formed during the reaction.

CYP2B6 = assay: CYP induction (enzyme activity) in cryopreserved human hepatocytes, CYP2B6; conditions: for fold induction at 72 h, 0.15 µM / fold induction at 72 h, 1.5 µM / fold induction at 72 h, 5 µM / fold induction at 72 h, 15 µM: human, plated cryopreserved human hepatocytes
[2] = Metabolic stability in dog hepatocytes; type: in vitro ADME
Experimental: as §1, §2, §3, §4

dog hepatocytes = assay: Metabolic stability in dog hepatocytes; type: in vitro ADME; conditions: 1 μM
Experimental: as §1, §2, §3, §4

human liver microsomes = assay: ZB716 remaining in human liver microsomes with and without CYP-specific chemical inhibitors; conditions: HLM
[3] = 2 µM ZB716, with CYP1A2 inhibitor Furafylline
[4] = 2 µM ZB716, with CYP2A6 inhibitor Tranylcypromine
[5] = 2 µM ZB716, with CYP2B6 inhibitor Ticlopidine
[6] = 2 µM ZB716, with CYP2C8 inhibitor Montelukast
[7] = 2 µM ZB716, with CYP2C9 inhibitor Sulfaphenazole
[8] = 2 µM ZB716, with CYP2C19 inhibitor N-3-benzylnirvanol
[9] = 2 µM ZB716, with CYP2D6 inhibitor Quinidine
[10] = 2 µM ZB716, with CYP3A inhibitor Ketoconazole

With `C[C@]12CC[C@@H]3c4ccc(B(O)O)cc4C[C@@H](CCCCCCCCC[S+]([O-])CCCC(F)(F)C(F)(F)F)[C@H]3[C@@H]1CC[C@@H]2O` (stereo partly shown) [ZB716, fulvestrant-3-boronic acid] the “Estimated In Vitro t1/2” value [1] was “∞”, the “Remaining at 120 min” value [1] was 100% and the “induction fold compared to the vehicle control” value (CYP2B6; all three donors, 1.5–15 μM) was 2.98–6.40. For the same molecule, the “induction percentage of the positive control” value (CYP2B6; all three donors, 1.5–15 μM) was 37.4–92.1%, the “Percent of Control” value (CYP2B6; donor one, 0.15 µM) was 2.22% and the “Percent of Control” value (CYP2B6; donor one, 1.5 µM) was 17.2%. The “Percent of Control” value (CYP2B6; donor one, 5 µM) was 70.6%, the “Percent of Control” value (CYP2B6; donor one, 15 µM) was 73.0% and the “Percent of Control” value (CYP2B6; donor three, 0.15 µM) was 2.61%. For the same molecule, the “Percent of Control” value (CYP2B6; donor three, 1.5 µM) was 39.2%, the “Percent of Control” value (CYP2B6; donor three, 5 µM) was 37.4% and the “Percent of Control” value (CYP2B6; donor three, 15 µM) was 4.18%. The “Percent of Control” value (CYP2B6; donor two, 0.15 µM) was 3.16%, the “Percent of Control” value (CYP2B6; donor two, 1.5 µM) was 19.8% and the “Percent of Control” value (CYP2B6; donor two, 5 µM) was 71.7%. For the same molecule, the “Percent of Control” value (CYP2B6; donor two, 15 µM) was 92.1%, the fold induction at 72 h, 0.15 µM (CYP2B6; donor one, 0.15 µM) was 1.1 ± 0.05 and the fold induction at 72 h, 1.5 µM (CYP2B6; donor one, 1.5 µM) was 1.77 ± 0.13. It also gave a fold induction at 72 h, 5 µM (CYP2B6; donor one, 5 µM) of 4.14 ± 0.06, a fold induction at 72 h, 15 µM (CYP2B6; donor one, 15 µM) of 4.24 ± 0.47 and a fold induction at 72 h, 0.15 µM (CYP2B6; donor three, 0.15 µM) of 1.14 ± 0.09. It also gave a fold induction at 72 h, 1.5 µM (CYP2B6; donor three, 1.5 µM) of 3.07 ± 0.36, a fold induction at 72 h, 5 µM (CYP2B6; donor three, 5 µM) of 2.98 ± 0.74 and a fold induction at 72 h, 15 µM (CYP2B6; donor three, 15 µM) of 1.22 ± 0.42. The fold induction at 72 h, 0.15 µM (CYP2B6; donor two, 0.15 µM) was 1.19 ± 0.1, the fold induction at 72 h, 1.5 µM (CYP2B6; donor two, 1.5 µM) was 2.16 ± 0.07 and the fold induction at 72 h, 5 µM (CYP2B6; donor two, 5 µM) was 5.21 ± 0.24. It also gave a fold induction at 72 h, 15 µM (CYP2B6; donor two, 15 µM) of 6.4 ± 0.16, a half-life at 1 μM ([2]; read-out: Estimated In Vitro t1/2) of 26.7 ± 0.4 min and a hepatocyte CLint at 1 μM ([2]; read-out: In Vitro Clint) of 51.9 ± 0.7 µL/min/1e6 cells. For the same molecule, the CLint scaled at 1 μM ([2]; read-out: Scaled-Up Clint) was 357 ± 5 mL/min/kg, the “Remaining at 120 min” value (dog hepatocytes) was 6.99 ± 0.46% and the Inhibition % (human liver microsomes; 2 µM ZB716, Without Inhibitor) was 0.00%. The “Remaining Percentage (%) at 15 min” value (human liver microsomes; 2 µM ZB716, Without Inhibitor) was 18.7 ± 1.2%, the “Remaining Percentage (%) at 60 min” value (human liver microsomes; 2 µM ZB716, Without Inhibitor) was 5.74 ± 0.52% and the Inhibition % (human liver microsomes; [3]) was −48.9%. For the same molecule, the “Remaining Percentage (%) at 15 min” value (human liver microsomes; [3]) was 8.24 ± 0.80%, the “Remaining Percentage (%) at 60 min” value (human liver microsomes; [3]) was 1.43 ± 0.51% and the Inhibition % (human liver microsomes; [4]) was −14.4%. The “Remaining Percentage (%) at 15 min” value (human liver microsomes; [4]) was 14.8 ± 2.5%, the “Remaining Percentage (%) at 60 min” value (human liver microsomes; [4]) was 5.24 ± 2.31% and the Inhibition % (human liver microsomes; [5]) was −9.46%. The “Remaining Percentage (%) at 15 min” value (human liver microsomes; [5]) was 15.9 ± 0.8%, the “Remaining Percentage (%) at 60 min” value (human liver microsomes; [5]) was 2.09 ± 0.23% and the Inhibition % (human liver microsomes; [6]) was −15.1%. The “Remaining Percentage (%) at 15 min” value (human liver microsomes; [6]) was 14.6 ± 2.4%, the “Remaining Percentage (%) at 60 min” value (human liver microsomes; [6]) was 3.41 ± 0.30% and the Inhibition % (human liver microsomes; [7]) was −31.8%. For the same molecule, the “Remaining Percentage (%) at 15 min” value (human liver microsomes; [7]) was 10.9 ± 0.1%, the “Remaining Percentage (%) at 60 min” value (human liver microsomes; [7]) was 2.31 ± 0.18% and the Inhibition % (human liver microsomes; [8]) was −22.5%. The “Remaining Percentage (%) at 15 min” value (human liver microsomes; [8]) was 12.8 ± 1.2%, the “Remaining Percentage (%) at 60 min” value (human liver microsomes; [8]) was 3.10 ± 0.44% and the Inhibition % (human liver microsomes; [9]) was 74.7%. The “Remaining Percentage (%) at 15 min” value (human liver microsomes; [9]) was 65.6% and 65.6 ± 6.0%, the Inhibition % (human liver microsomes; [10]) was 88.2% and the “Remaining Percentage (%) at 15 min” value (human liver microsomes; [10]) was 74.4% and 74.4 ± 5.8%. The “Remaining Percentage (%) at 60 min” value (human liver microsomes; [10]) was 43.4 ± 2.8%.
